Assays:
HIV mutant A (Y181C) = assay: Antiviral cellular assay, mutant HIV strain A; type: cell-based; settings: EC50 mutant/EC50 wild type, rounded to nearest integer
Protocol: (§1) HIV- or mock-infected MT4 cells were incubated for five days in the presence of various concentrations of the inhibitor. At the end of the incubation period, the replicating virus in the control cultures has killed all HIV-infected cells in the absence of any inhibitor. Cell viability was determined by measuring the concentration of MTT, a yellow, water soluble tetrazolium dye that is converted to a purple, water insoluble formazan in the mitochondria of living cells only. Upon solubilization of the resulting formazan crystals with isopropanol, the absorbance of the solution was monitored at 540 nm. The values correlate directly to the number of living cells remaining in the culture at the completion of the five day incubation. The inhibitory activity of the compound was monitored on the virus-infected cells and was expressed as EC50 and EC90. These values represent the amount of the compound required to protect 50% and 90%, respectively, of the cells from the cytopathogenic effect of the virus. […] Wherever results are reported as e.g. pEC50 or pCC50 values, the result is expressed as the negative logarithm of the result expressed as EC50 or CC50 respectively. […]
(§2) Row WT: pEC50 against wild type HIV-LAI strain. The toxicity (Tox) is expressed as the pCC50 value as determined with mock transfected cells. ND means not determined.

HIV mutant B (K103N) = assay: Antiviral cellular assay, mutant HIV strain B; type: cell-based; settings: EC50 mutant/EC50 wild type, rounded to nearest integer
Protocol: as §1, §2

[1] = system: HIV mutant C (L100I; K103N); assay: Antiviral cellular assay, mutant HIV strain C; type: cell-based; settings: EC50 mutant/EC50 wild type, rounded to nearest integer
Protocol: as §1, §2

[2] = system: HIV mutant D (L100I; K103N); assay: Antiviral cellular assay, mutant HIV strain D; type: cell-based; settings: EC50 mutant/EC50 wild type, rounded to nearest integer
Protocol: as §1, §2

HIV mutant E (F227C) = assay: Antiviral cellular assay, mutant HIV strain E; type: cell-based; settings: EC50 mutant/EC50 wild type, rounded to nearest integer
Protocol: as §1, §2

HIV mutant F (Y188L) = assay: Antiviral cellular assay, mutant HIV strain F; type: cell-based; settings: EC50 mutant/EC50 wild type, rounded to nearest integer
Protocol: as §1, §2

[3] = system: HIV mutant G (V106A, F227L); assay: Antiviral cellular assay, mutant HIV strain G; type: cell-based; settings: EC50 mutant/EC50 wild type, rounded to nearest integer
Protocol: as §1, §2

[4] = system: HIV mutant H (K103N, Y181C); assay: Antiviral cellular assay, mutant HIV strain H; type: cell-based; settings: EC50 mutant/EC50 wild type, rounded to nearest integer
Protocol: as §1, §2

[5] = system: HIV mutant I (K101E, K103N); assay: Antiviral cellular assay, mutant HIV strain I; type: cell-based; settings: EC50 mutant/EC50 wild type, rounded to nearest integer
Protocol: as §1, §2

[6] = system: HIV mutant J (131L, L100I, K103N, E138G, Y181C, L214F); assay: Antiviral cellular assay, mutant HIV strain J; type: cell-based; settings: EC50 mutant/EC50 wild type, rounded to nearest integer
Protocol: as §1, §2

[7] = system: HIV mutant K (multiple RT mutations, Table 1); assay: Antiviral cellular assay, mutant HIV strain K; type: cell-based; settings: EC50 mutant/EC50 wild type, rounded to nearest integer
Protocol: as §1, §2

HIV-2 = assay: Antiviral cellular assay, HIV-2; type: cell-based; settings: Human immunodeficiency virus 2; read-out: pEC50 towards HIV-2 (converted)
Protocol: HIV- or mock-infected MT4 cells were incubated for five days in the presence of various concentrations of the inhibitor. At the end of the incubation period, the replicating virus in the control cultures has killed all HIV-infected cells in the absence of any inhibitor. Cell viability was determined by measuring the concentration of MTT, a yellow, water soluble tetrazolium dye that is converted to a purple, water insoluble formazan in the mitochondria of living cells only. Upon solubilization of the resulting formazan crystals with isopropanol, the absorbance of the solution was monitored at 540 nm. The values correlate directly to the number of living cells remaining in the culture at the completion of the five day incubation. The inhibitory activity of the compound was monitored on the virus-infected cells and was expressed as EC50 and EC90. These values represent the amount of the compound required to protect 50% and 90%, respectively, of the cells from the cytopathogenic effect of the virus. […] Wherever results are reported as e.g. pEC50 or pCC50 values, the result is expressed as the negative logarithm of the result expressed as EC50 or CC50 respectively.
as §2

[8] = system: SIV (simian immunodeficiency virus); assay: Antiviral cellular assay, SIV; type: cell-based; settings: read-out: pEC50 towards SIV (converted)
Mycobacterium b. = assay: Specificity versus non-viral pathogens: Mycobacterium b.; type: cell-based
[9] = system: HIV-1 strain LAI in MT4 cells; assay: Time of addition experiment (p24 ELISA); type: cell-based; settings: 50 μM, MT4 cells infected with HIV-1 LAI
Protocol: A time of addition experiment was performed to determine the mechanism of action of the compounds of the present invention. In the time of addition experiment, compounds are added to cells that were infected with HIV, at time zero (Zero hours). The compounds are subsequently added at different points in time. The time point until which a compound can be added to prevent virus replication, provides an indication of the mechanism of action of the compound.
In the present experiment, MT4 cells were infected with HIV-1 strain LAI at time zero. In different experiments, compounds were subsequently added at the points in time indicated in the X-axis of FIG. 1 (in hours). The compounds were added at the following end concentrations during incubation: DS5000, 1 μM; efavirenz (EFV), 1 μM; saquinavir (SQV), 1 μM; Reference 1, 10 μM (Reference 1 is an integrase inhibitor selected from WO 99/62520 and is present in CAS database: 251963-93-6); Compound 2, 50 μM; Control: normalized virus production. The virus production was determined using p24 monitoring using a kit according to the manufacturers instructions (p24 ELISA kit, catalog reference NEK-050, Perkin Elmer).

[10] = molecular target: T1, HIV reverse transcriptase (Human immunodeficiency virus type 1 group M subtype B, UniProt P04585); assay: In vitro inhibition of HIV reverse transcriptase (kit TRK 1022); type: biochemical; settings: enzyme assay, 4 hours at 37° C.
T1 construct: 5 μl HIV RT enzyme solution; purchased Amersham Life Sciences TRK 1022
Protocol: The assay was run using kit TRK 1022 (Amersham Life Sciences) according to the manufacturer's instructions with slight modifications. Compounds were diluted in steps of ¼ in 100% DMSO and subsequently transferred to Medium A (1/50 dilution; medium A: RPMI 1640+10% FetalClone II+Gentamycin 20 mg/L). 25 μl of compound (in 2% DMSO in Medium A) or 25 μl of 2% DMSO in medium A was added to wells. To each well was added 25.5 μl master mix (master mix: 5 μl primer/template beads, 10 μl assay buffer, 0.5 μl tracer (3H-TTP), 5 μl HIV RT enzyme solution at a final enzyme activity of 15 mU per 50 μl reaction, 5 μl medium A). The plates were sealed, marked as radioactive and incubated during 4 hours at 37° C. Subsequently, 100 μl stop solution was added to each well (except R1). The radioactivity was counted in a TopCount.

[11] = Microsomal metabolization, dog liver microsomes; type: in vitro ADME; settings: 10 μM, LC-MS
[12] = Microsomal metabolization, human liver microsomes; type: in vitro ADME; settings: for hepatic first pass metabolization (microsomal): liver microsomal fractions
Protocol: Aliquots of human liver microsomal fractions (prepared by centrifugation at 12000 g^−1) were transferred into 10 ml glass tubes that are immersed in ice. Subsequently, test compound was added to yield a final concentration of 10 μM test compound. After adding 500 μl of a co-factor solution (cofactor solution: 1 mg/ml glucose-6-phosphate, 1 mg/ml MgCl2.6H2O, 0.5 units/ml glucose-6-phosphate dehydrogenase in 0.5 M phohsphate buffer. pH 7.4), homogenisation buffer (homogenisation buffer: 1,15% KCl in 0.05 M phosphate buffer, pH 7.4) was added to give a final volume of 1 ml. The incubations, 30 or 120 minutes at 37° C., were initiated by adding 10 μl of a solution of nicontinamide adenine dinucleotide phosphate (1.25 mg/ml) in homogenisation buffer. After a preincubation during 5 minutes at 37° C., the tubes were continuously shaken at 100 oscillations/minute in a water bath. The reactions were terminated by addition of an equal volume of DMSO. Blank incubations containing boiled microsomal fractions were incubated under the same conditions as the drug incubations. The degree of metabolism was determined by direct measurement of the residual parent compound in the reaction mixture using LC-MS. In parallel, the residual anti-HIV activity in the reaction mixture was detected using a colorimetric anti-HIV assay as described in Pauwels et al. J. Virol. Methods 1988 (20) 309-321. The residual activity is defined as the percent difference in EC50 between the drug incubations and the blank incubations.
The amount of compound was determined using LC-MS at the time points indicated between brackets. The results are indicated as a % vis-à-vis the amount determined at the start of the experiment (time=0; normalized to 100%).

wild type HIV-LAI strain = assay: Antiviral cellular assay (MT4 cells, MTT), wild type HIV-1 strain LAI; type: cell-based; settings: Human immunodeficiency virus 1, MT4; read-out: EC50, inhibition of wild-type HIV-LAI strain
Protocol: The compounds of the present invention were examined for anti-viral activity in a cellular assay. […] The cellular assay was performed according to the following procedure.
HIV- or mock-infected MT4 cells were incubated for five days in the presence of various concentrations of the inhibitor. At the end of the incubation period, the replicating virus in the control cultures has killed all HIV-infected cells in the absence of any inhibitor. Cell viability was determined by measuring the concentration of MTT, a yellow, water soluble tetrazolium dye that is converted to a purple, water insoluble formazan in the mitochondria of living cells only. Upon solubilization of the resulting formazan crystals with isopropanol, the absorbance of the solution was monitored at 540 nm. The values correlate directly to the number of living cells remaining in the culture at the completion of the five day incubation. The inhibitory activity of the compound was monitored on the virus-infected cells and was expressed as EC50 and EC90. These values represent the amount of the compound required to protect 50% and 90%, respectively, of the cells from the cytopathogenic effect of the virus. The toxicity of the compound was measured on the mock-infected cells and was expressed as CC50, which represents the concentration of compound required to inhibit the growth of the cells by 50%. The selectivity index (SI) (ratio CC50/EC50) is an indication of the selectivity of the anti-HIV activity of the inhibitor. Wherever results are reported as e.g. pEC50 or pCC50 values, the result is expressed as the negative logarithm of the result expressed as EC50 or CC50 respectively.
As a measure of the broad spectrum activity of the present compounds, the EC50 was determined. […] The fold resistance rounded to the nearest integer is mentioned between brackets.
as §2

SMILES | fold resistance mutant A (between brackets) (HIV mutant A (Y181C)) | fold resistance mutant B (between brackets) (HIV mutant B (K103N)) | fold resistance mutant C (between brackets) [1] | fold resistance mutant D (between brackets) [2] | fold resistance mutant E (between brackets) (HIV mutant E (F227C)) | fold resistance mutant F (between brackets) (HIV mutant F (Y188L)) | fold resistance mutant G (between brackets) [3] | fold resistance mutant H (between brackets) [4] | fold resistance mutant I (between brackets) [5] | fold resistance mutant J (between brackets) [6] | fold resistance mutant K (between brackets) [7] | EC50 (HIV-2) [nM] | EC50 [8] [nM] | hepatic first pass metabolization (microsomal) [12] | EC50 (wild type HIV-LAI strain) [nM] | further results
N#Cc1cc2[nH]c3ccccc3c2n(-c2ccc([N+](=O)[O-])cc2)c1=O [Compound 1, 1-(4-nitrophenyl)-2-oxo-2,5-dihydro-1H-pyrido[3,2-b]indole-3-carbonitrile] | 8 | 4 | 8 | 3 | 6 | 4 | 2 | 5 | 3 | 5 | 1 | 6310 | 7940 | – | – | –
Cn1c2ccccc2c2c1cc(C#N)c(=O)n2-c1ccc([N+](=O)[O-])cc1 [Compound 2, 5-methyl-1-(4-nitro-phenyl)-2-oxo-2,5-dihydro-1H-pyrido[3,2-b]indole-3-carbonitrile] | 4 | 1 | 3 | 2 | 3 | 2 | 3 | 5 | 3 | 5 | 4 | 251 | 316 | little or no hepatic first pass metabolization | – | EC50 (Mycobacterium b.): > 32000 nM; time of addition: effect on virus production / mechanism [9]: delayed virus production using a mechanism related to reverse transcriptase; in vitro inhibition of HIV reverse transcriptase [10]: inhibits HIV reverse transcriptase in vitro; DLM (0 min) amount of compound ([11]; 0 min, normalized to 100% at time 0): 100%; DLM (30 min) amount of compound ([11]; 30 min, % of amount at time 0): 91%; DLM (120 min) amount of compound ([11]; 120 min, % of amount at time 0): 108%; HLM (0 min) amount of compound ([12]; 10 μM, 0 min, LC-MS, normalized to 100% at time 0): 100%; HLM (30 min) amount of compound ([12]; 10 μM, 30 min, LC-MS, % of amount at time 0): 98%; HLM (120 min) amount of compound ([12]; 10 μM, 120 min, LC-MS, % of amount at time 0): 128%
N#Cc1cc2c(c3ccccc3n2CCN2CCCC2)n(-c2ccc([N+](=O)[O-])cc2)c1=O [Compound 13, 1-(4-Nitro-phenyl)-2-oxo-5-(2-pyrrolidin-1-yl-ethyl)-2,5-dihydro-1H-pyrido[3,2-b]-indole-3-carbonitrile] | – | – | – | – | – | – | – | – | – | – | – | – | – | little or no hepatic first pass metabolization | < 1000 | –
Cn1c2ccccc2c2c1cc(-c1noc(C(F)(F)F)n1)c(=O)n2-c1ccc([N+](=O)[O-])cc1 [Compound 72, 5-Methyl-1-(4-nitro-phenyl)-3-(5-trifluoromethyl-[1,2,4]oxadiazol-3-yl)-1,5-dihydropyrido[3,2-b]indol-2-one] | – | – | – | – | – | – | – | – | – | – | – | – | – | – | < 1000 | –
Cn1c2ccccc2c2c1cc(C(N)=O)c(=O)n2-c1ccc([N+](=O)[O-])cc1 [Compound 76] | – | – | – | – | – | – | – | – | – | – | – | – | – | – | 1000 to 32000 | –

— US7608726B2, “Substituted indolepyridinium as anti-infective compounds” (Tibotec Pharmaceuticals Ltd., priority 2002, dated 2009)
